Experimental data from patent US20060286574A1 (priority 2005, published 2006).

How the values were obtained:
E. coli [1] = assay type: cell-based; details: for enhancement of the activity of ciprofloxacin: at 25 μM
E. coli [2] = test system: E. coli
K. pneumoniae = assay type: in vivo; details: mice; wild type vs ΔrecB K. pneumoniae; 0.064-15 mg/kg/day ciprofloxacin; 48 hour endpoint; FIG. 6
E. coli ΔrecB strains = assay type: cell-based; details: putative ΔrecB transductants and parental ΔrecB strain
E. coli [3] = assay: Effect of gam expression on ciprofloxacin efficacy in E. coli; assay type: cell-based
P. aeruginosa = assay: Effect of gam expression on ciprofloxacin efficacy in P. aeruginosa; assay type: cell-based

Cn1c2ccccc2n2c3ncccc3c(=O)c(C#N)c12 [Formula IIb]
enhancement of the activity of ciprofloxacin (E. coli [1]): enhanced the activity of ciprofloxacin

Cn1c2ccccc2n2c3cnccc3c(=O)c(C#N)c12 [Formula IIc]
enhancement of the activity of ciprofloxacin (E. coli [1]): enhanced the activity of ciprofloxacin

O=C(O)c1cn(C2CC2)c2cc(N3CCNCC3)c(F)cc2c1=O [ciprofloxacin]
cells killed (E. coli [2]): 99% | reduction in CFU in thigh (log CFU/gm of thigh) (K. pneumoniae): significantly greater reduction in CFU for the recB mutants relative to the wild type strain

Nc1ccc2noc3c2c1C(=O)c1ccccc1-3 [Formula Ia]
MIC shift in ciprofloxacin responsiveness (E. coli [1]): 10 ×

CO[C@@]12[C@H](COC(N)=O)C3=C(C(=O)C(C)=C(N)C3=O)N1C[C@@H]1N[C@@H]12 [Mitomycin C]
Mitomycin C MIC of ΔrecB strains, lower compared to recB+ strains (E. coli ΔrecB strains): about 8 fold

B1: lambda gam: protein used by λ phage to inhibit E. coli RecB; overexpressed from an arabinose-inducible vector (protein, UniProt P03702 1-138, looked up)
Host-nuclease inhibitor …: MDINTETEIKQKHSLTPFPVFLISPAFRGRYFHSYFRSSAMNAYYIQDRLEAQSWARHYQQLAREEKEAELADDMEKGLPQHLFESLCIDHLQRHGASKKSITRAFDDDVEFQERMAEHIRYMVETIAHHQVDIDSEV
effect of lambda gam overexpression on ciprofloxacin sensitivity (E. coli [3]; strain lacking the RecB target (RTC0148) relative to empty vector strain (RTC0147)): no effect | decrease in the ciprofloxacin IC50 on overexpression of lambda gam (E. coli [3]; wild-type E. coli (RTC0142) and gyrA(S83L) (RTC0144) relative to empty vector controls (RTC0141, RTC0143)): 5-8 fold | effect of lambda gam overexpression on ciprofloxacin sensitivity (P. aeruginosa; strain lacking the RecB target (RTC1019) relative to empty vector strain (RTC1016)): no effect | decrease in the ciprofloxacin MIC on overexpression of lambda gam (P. aeruginosa; wild-type P. aeruginosa (RTC1017) and gyrA(S831) mutant (RTC1018) relative to empty vector controls (RTC1014, RTC1015)): 2-4 fold
